For orientation: melting point means the temperature, or range, at which the solid turns liquid.

The source of these data is a melting point compilation (Tetko et al.; mined from patent text by program, amines drawn as free bases though some values may be those of a salt).

Some results are limits rather than exact numbers.

Take `CCOC(=O)COn1ccncc1=O`: the melting point fell in the range of 98 to 100 °C.
For `CC(=O)Nc1ccc(-c2nc(C(=O)Nc3nccs3)c(-c3ccccc3C)[nH]2)cc1`, the melting point was 269 to 271 °C.
The same measure for `Cc1c(C#N)sc(Br)c1Br`: 77 to 80 °C; for `CC(C)n1cc(C(=O)O)c2ccc(Br)cc21`: 207 to 209 °C.
In the case of `CC(C)OC(=O)C1=C(c2ccccc2)C(c2ccccc2)OC1=O` (configuration not stated) it was 120 to 122 °C; in that of `Cc1cccc2c1N(CC(=O)N1CC3CCC(CC3)C1)CC(NC(=O)Nc1cccc(Br)c1)N=C2c1ccccc1F` (configuration not stated), greater than 250 °C.
On to `CCCCC(=O)N(Cc1ccc(-c2ccccc2-c2nc(=O)o[nH]2)cc1)c1sccc1C(=O)OC`, for which the melting point is 154 to 155 °C.
In the case of `COc1ccc(-c2cccc(OC3SCC(OC(C)=O)C(OC(C)=O)C3OC(C)=O)c2)cn1` (configuration not stated) it was 132 °C; in that of `N=C(Nc1cccc(NC(=O)/C=C/c2ccccc2C(F)(F)F)c1)c1ccccc1`, 82 to 84 °C; in that of `c1ccc(CN2CCC(COc3ccccc3)CC2)cc1`, 56 to 57 °C.
As for `CC(c1ccc(OCC(=O)Nc2ccc(-c3ccc(Cl)cc3)cc2)cc1)N1CCCC1` (configuration not stated), the melting point was in the range of 156 to 158 °C.
The same measure for `CCOC(=Cc1ccncc1)C(C)=O`: 84 to 88 °C; for `CCc1nc(C(C)(C)O)c(C(=O)OCc2oc(=O)oc2C)n1Cc1ccc(-c2ccccc2-c2nnnn2C(c2ccccc2)(c2ccccc2)c2ccccc2)cc1`: 145 °C.
The same measure for `Cn1c(N2CCOC(c3nc(-c4ccccc4)no3)C2)nc(-c2ccncn2)cc1=O` (configuration not stated): 167 °C; for `O=C(OC1COC(n2cc(CCN3C(=O)c4ccccc4C3=O)c(=O)[nH]c2=O)C(OC(=O)c2ccccc2)C1OC(=O)c1ccccc1)c1ccccc1` (configuration not stated): 124 °C; for `CC(=O)N1CCN(c2cc(Cl)c(Cl)c(Cl)c2)CC1`: 133 to 136 °C.
In the case of `Cc1nc2c(s1)-c1nc(Nc3ccc(N(C)C)cc3)ncc1CC2` it was 176 to 177 °C.
Compound `Cc1ccc(Cc2cnc(NCCCN(Cc3ccccc3)c3ccc(Br)cn3)[nH]c2=O)cn1` displayed a melting point of 150 to 155 °C.
In the case of `CN1C(=O)N=C(NCc2ccccc2)C1=O` it was 152 to 154 °C; in that of `CCOC(=O)Nc1nc(-c2ccccc2)c(-c2nc3ccccc3c(=O)n2-c2ccc(C(C)=O)cc2)s1`, 245 to 247 °C.
Consider `O=C(c1ccn2c1CSC2c1cccnc1)c1c[nH]c2cc(-c3ccc(F)cc3)ccc12` (configuration not stated), for which the melting point lay within 248 to 252 °C.
The same measure for `O=c1oc2c(OCc3nnn[nH]3)c(O)c(OCc3nnn[nH]3)c(O)c2c2c1CCCC2`: 283 to 286 °C.
`CCCn1nc2c(N)nc3ccccc3c2c1CC(C)C` displayed a melting point of 199 to 200 °C.
In the case of `CCOC(=O)/C=C(/c1ccc(Cl)cc1)c1cccc(OC)c1OC` it was 82 to 84 °C.
The same measure for `O=C(CN1CCC(Cc2ccc(F)cc2)CC1)Nc1ccc2[nH]ncc2c1`: 149 to 152 °C; for `COc1ccc2c(c1)Cc1ccc(C(=O)O)cc1O2`: 259 to 261 °C; for `COc1ccc(C(=O)N2CCCC3=C2CCc2cc(Cl)ccc23)cc1`: 182 to 183 °C.
The same measure for `COC(=O)Cc1c(C)nc(C)nc1Cl`: 53 to 54 °C; for `O=C(Nc1cccc(Br)c1)Oc1ccc2c(c1)CCCN2Cc1ccccc1`: 117 °C; for `COc1ccc(C2=NN(c3ccccc3)C(=O)[C@H]3CC=CC[C@@H]23)cc1OC1CCCC1` (relative stereo): 134 to 135 °C.
Take `Cc1cn(N=Cc2cccnc2)c(=O)n1C`: the melting point lay in the range of 186 to 187 °C.
The same measure for `CCCCCCCCCCCCCCOc1cccc(CC(=O)Nc2ccccc2CO)c1`: 100 to 103 °C.
In the case of `Clc1ccc(N2CCN(Cc3cn4cc(Cl)ccc4n3)CC2)c(Cl)c1` it was 136 to 138 °C.
The same measure for `O=C(c1ccccc1)c1cccc(Cl)c1[N+](=O)[O-]`: 126 °C; for `COc1cc2c(cc1C)CCN=C2C1(c2ccco2)CC1`: 98 to 100 °C.
Consider `O=C(O)CCCc1ccc(NS(=O)(=O)c2ccccc2)cc1`, for which the melting point lay within 128 to 130 °C.
Take `CN(C)C1CC=C(c2ccccc2Cc2ccccc2)CC1` (configuration not stated): the melting point is 44 to 45 °C.
Take `O=C(Oc1cc2ccccc2cc1OC(=O)c1cc(O)c(O)c(O)c1)c1cc(O)c(O)c(O)c1`: the melting point lay in the range of 182 to 183 °C.
`CCOC(=O)c1ncc2[nH]c3cccc(CN4CCOCC4)c3c2c1COC`: the melting point was 195 to 196 °C.
In the case of `CCCNc1nnc(C)o1` it was 46.5 to 47.5 °C; in that of `COc1ccc(S(=O)(=O)N(Cc2ccccc2)C(Cc2nnn(C)n2)C(=O)NO)cc1` (configuration not stated), 72 to 75 °C; in that of `Cc1ccc(-c2c(CNC(=O)OC(C)(C)C)n(CC(C)C)c(=O)c3ccc(C(=O)O)cc23)cc1`, 230 to 231 °C.
`Cc1ccc(CC(CNC(=O)C(C)c2ccc(NS(C)(=O)=O)c(F)c2)COC(=O)C(C)(C)C)cc1C` (configuration not stated) yielded a melting point of 46 to 48 °C.
The same measure for `CCOC(=O)c1sc(OCC)c2c1CCc1cnn(C)c1-2`: 109 to 110 °C; for `CC(C)(C)c1ccc(C(=O)Nc2cn3cc(-c4cccnc4)ccc3n2)cn1`: 272 to 274 °C.
The same measure for `O=c1oc2cccnc2n1CCCN1CCN(c2cccc(C(F)(F)F)c2)CC1`: 62 to 63 °C; for `OCc1ccccc1-c1ccccc1CO`: 98 to 103 °C; for `Nc1sc2c(c1C(=O)c1cccc3ccccc13)CCCC2`: 137 to 140 °C.
For the compound `O=C1c2ccccc2C(=O)N1OCCCN1CCOCC1`, the melting point worked out at 98 °C.
In the case of `CCCCCCN1C(=O)C(=O)c2cc(SCCCc3ccc(C(=O)O)cc3)ccc21`, the melting point was in the range of 150 to 152 °C.
In the case of `CNC(=S)Nc1cc(F)ccc1N1CCOCC1` it was 145 to 148 °C; in that of `O=C1N[C@H](Cc2ccc(C(F)(F)F)cc2)[C@H](c2ccc(F)c(F)c2)O1` (racemic), 157 to 158 °C.
For the compound `COC(=O)C=CC1=C(N)CCC1=O`, the melting point is 278 to 279 °C.
The same measure for `CC(C)N1CCC(COc2ncc(C(=O)c3ccc(Cl)cc3)n2C)CC1`: 126 to 127 °C; for `COc1cccc2c3c(cnc12)CCCN3c1ccccc1C`: 160 to 161 °C; for `Clc1ccc(CCNc2ccc3ccc(NCCc4ccc(Cl)cc4)nc3c2)cc1`: 55 to 60 °C.
In the case of `COc1ccc(-n2c(-c3ccc(SC)cc3)nc(SC)c(C#N)c2=O)cc1`, the melting point was 214 to 216 °C.
As for `COc1cc(O)c(C(=O)C=Cc2ccc3c(c2)OCO3)c(OC)c1`, the melting point is 162 °C.
The compound `Cc1cc(CCC(=O)O)cc(-c2nc(=O)c3ccccc3s2)n1` showed a melting point of 233 to 235 °C.
The same measure for `COc1cc(C(=O)NS(=O)(=O)c2ccccc2C)ccc1Cc1c(Cl)n(C)c2cc(Cl)c(CCNC(=O)N(C)C)cc12`: 236 to 238 °C; for `N#Cc1cnn2c1N(C(=O)CN1CCN(CC#CCN3CCCC3=O)CC1)CC=C2c1cccc(C(F)(F)F)c1`: 124 to 126 °C; for `O=C(O)c1coc(Cc2ccccc2)n1`: 155 to 156 °C.
